Source: ChEMBL document CHEMBL1129997 (J Med Chem, 1997)

What was measured:
T78-1 = assay: Cytotoxicity in T78-1 (NR-negative) cell lines; format: functional, cell-based; details: Cricetulus griseus
T78-1/T79-A3 = assay: TE50 is termed as Bystander effect evaluated in T78-1 and T79-A3 cell lines; format: functional, Cricetulus griseus; set-up: unit not given beside the values
[1] = molecular target: T1, Modulator of drug activity A (Escherichia coli O157:H7) (UniProt Q8X6S1); assay: IC50 ratio for NR-positive and NR-negative cell lines; format: functional
T1 sequence (whole entry): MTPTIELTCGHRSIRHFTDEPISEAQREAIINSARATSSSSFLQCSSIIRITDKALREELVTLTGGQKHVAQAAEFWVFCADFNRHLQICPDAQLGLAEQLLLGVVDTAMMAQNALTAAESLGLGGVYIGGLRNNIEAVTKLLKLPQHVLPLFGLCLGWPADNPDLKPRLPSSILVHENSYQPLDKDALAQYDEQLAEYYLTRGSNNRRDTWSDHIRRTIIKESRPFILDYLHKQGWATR

| Structure (SMILES) | IC50 (T78-1) [µM] | TE50 (T78-1/T79-A3) | Ratio [1] |
| --- | --- | --- | --- |
| O=C(NCC(O)CO)c1cc([N+](=O)[O-])cc([N+](=O)[O-])c1N(CCCl)CCCl (stereo not drawn) | 919 | 12 |  |
| O=C(NCC(O)CO)c1cc(N(CCI)CCI)c([N+](=O)[O-])cc1[N+](=O)[O-] (stereo not drawn) | 793 | 0.45 |  |
| NC(=O)c1cc(N(CCI)CCI)c([N+](=O)[O-])cc1[N+](=O)[O-] | 71 | 0.3 | 494 |
| CN(C)CCNC(=O)c1c([N+](=O)[O-])ccc(N(CCCl)CCCl)c1[N+](=O)[O-] | 722 |  | 0.8 |
| NC(=O)c1cc([N+](=O)[O-])cc([N+](=O)[O-])c1N(CCI)CCI | 58 | 0.4 |  |
| O=C(NCC(O)CO)c1cc(N(CCCl)CCCl)c([N+](=O)[O-])cc1[N+](=O)[O-] (stereo not drawn) | > 5000 |  | > 55 |
| CS(=O)(=O)CCN(CCCl)c1cc(C(N)=O)c([N+](=O)[O-])cc1[N+](=O)[O-] | > 1000 |  |  |
| NC(=O)c1c([N+](=O)[O-])ccc(N(CCCl)CCCl)c1[N+](=O)[O-] | > 1000 |  |  |
| NC(=O)c1cc([N+](=O)[O-])cc([N+](=O)[O-])c1N(CCCl)CCCl | > 1000 |  | > 133 |
| NC(=O)c1cc(N(CCBr)CCBr)c([N+](=O)[O-])cc1[N+](=O)[O-] | 633 | 0.1 | 2530 |
| CS(=O)(=O)c1cc([N+](=O)[O-])c(C(N)=O)cc1N(CCCl)CCCl | > 1000 |  | > 17 |
| CS(=O)(=O)CCN(CCS(C)(=O)=O)c1cc(C(N)=O)c([N+](=O)[O-])cc1[N+](=O)[O-] | > 1000 |  |  |
| O=C(NCC(O)CO)c1cc([N+](=O)[O-])cc([N+](=O)[O-])c1N(CCI)CCI (stereo not drawn) | 86 | 7 | 21.5 |
| NC(=O)c1cc(N2CC2)c([N+](=O)[O-])cc1[N+](=O)[O-] [TRETAZICAR] | 158 | 1 |  |
| NC(=O)c1cc(N(CCCl)CCCl)c([N+](=O)[O-])cc1[N+](=O)[O-] | 895 | 3.7 | 63 |
| NC(=O)c1cc([N+](=O)[O-])cc([N+](=O)[O-])c1N(CCBr)CCBr | 17.5 | 0.22 |  |
